The values that follow come from patent US7514422B2, “5HT2c receptor modulators” (Arena Pharmaceuticals, Inc., priority 2002, dated 2009).

As usually defined, the IC50 is the concentration that gives 50% inhibition.

The target in the assay is T1, human 5-HT2c receptor (Homo sapiens, UniProt P28335).
T1 construct: expressed in transfected cells; host or cells: HEK293
T1 sequence (P28335 33-458): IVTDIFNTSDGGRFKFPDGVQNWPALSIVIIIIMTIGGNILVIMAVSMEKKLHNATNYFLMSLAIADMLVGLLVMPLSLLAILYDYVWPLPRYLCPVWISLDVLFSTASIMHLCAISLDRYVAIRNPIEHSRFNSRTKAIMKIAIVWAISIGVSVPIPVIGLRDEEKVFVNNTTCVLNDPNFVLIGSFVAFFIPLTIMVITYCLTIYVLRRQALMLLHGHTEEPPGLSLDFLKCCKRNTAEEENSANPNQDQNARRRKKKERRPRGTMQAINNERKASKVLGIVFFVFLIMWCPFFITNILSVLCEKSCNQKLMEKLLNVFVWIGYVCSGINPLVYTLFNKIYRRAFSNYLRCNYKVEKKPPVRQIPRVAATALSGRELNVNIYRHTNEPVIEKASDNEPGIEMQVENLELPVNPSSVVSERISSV
The experiment in a line: Intracellular IP3 Accumulation Assay. The note with it: HEK293 cells transfected with human 5-HT2c receptor; averages of at least two trials; read-out: 5-HT2C (IC50) IP Accumulation Assay. Format: cell-based. As for the experimental part:
HEK293 cells were transfected in 15 cm sterile dishes with or without (control) 16 ug of human 5-HT2c receptor cDNA using 25 ul of lipofectamine. Cells were then incubated for 34 hours at 37° C/5% CO2 and then transfection media was removed and replaced with 100 ul of DMEM. Cells were then plated onto […] sterile dishes. The next day cells were plated into 96 well PDL microtiter plates at a density of 55K/0.2 ml. Six hours latter, media was exchanged with [^3H]inositol (0.25 uCi/well) in inositol free DMEM and plates were incubated at 37° C./5% CO2 overnight. The next day, wells were aspirated and 200 ul of DMEM containing test compound, 10 uM pargyline, and 10 mM LiCl was added to appropriate wells. Plates were then incubated at 37° C./5% CO2 for three hours followed aspiration and by addition of fresh ice cold stop solution (1M KOH, 19 mM Na-borate, 3.8 mM EDTA) to each well. Plates were kept on ice for 5-10 min and the wells were neutralized by addition of 200 ul of fresh ice cold neutralization solution (7.5% HCl). Plates were then frozen until further processing is desired. The lysate was then transferred into 1.5 ml Eppendorf tubes and 1 ml of chloroform/methanol (1:2) was added/tube. The solution was vortexed for 15 seconds and the upper phase was applied to a Biorad AG1-X8™ anion exchange resin (100-200 mesh). First, the resin was washed with water at 1:1.25 W/V and 0.9 ml of upper phase was loaded onto the column. The column was then washed with 10 ml of 5 mM myo-inositol and 10 ml of 5 mM Na-borate/60 mM Na-formate. The inositol tris phosphates were eluted into scintillation vials containing 10 ml of scintillation cocktail with 2 ml of 0.1 M formic acid/1 M ammonium formate. The columns were regenerated by washing with 10 ml of 0.1 M formic acid/3M ammonium formate and rinsed twice with dd H2O and stored at 4° C. in water.
`COc1cc2c(cc1Br)C(C)CNCC2` (racemic) [Example 1, (R,S) 8-Bromo-7-methoxy-1-methyl-2,3,4,5-tetrahydro-1H-3-benzazepine]: the concentration for half-maximal inhibition (IC50) turned out to be 4.2 nM. Turning to `COc1cc2c(cc1Cl)C(C)CNCC2` (racemic) [Example 2, (R,S) 8-Chloro-7-methoxy-1-methyl-2,3,4,5-tetrahydro-1H-3-benzazepine], the IC50 worked out at 4.5 nM. Under `COc1cc2c(cc1I)C(C)CNCC2` (racemic) [Example 3, (R,S) 8-Iodo-7-methoxy-1-methyl-2,3,4,5taetrhydro-1H-3-benzazepine] stands 1.4 nM; under `CC1CNCCc2cc(O)c(Br)cc21` (racemic) [Example 4, (R,S) 8-Bromo-7-hydroxy-1-methyl-2,3,4,5tetrahydro-1H-3-benzazepine], 2.1 nM.

For the compound `C=CCOc1cc2c(cc1Br)C(C)CNCC2` (racemic) [Example 5, (R,S) 7-Allyloxy-8-bromo-1-methyl-2,3,4,5tetrahydro-1H-3-benzazepine], the half-inhibitory concentration (IC50) is 12.1 nM. As for `C=CCOc1cc2c(cc1I)C(C)CNCC2` (racemic) [Example 12, (R,S) 7-Allyloxy-8-iodo-1-methyl-2,3,4,5-tetrahydro-1H-3-benzazepine], the IC50 came to 6.3 nM. With `CCC1CNCCc2cc(OC)c(Br)cc21` (racemic) [Example 19, (R,S) 8-Bromo-1-ethyl-7-methoxy-2,3,4,5-tetrahydro-1H-3-benzazepine], the IC50 stood at 18 nM. Under `CC1CNCCc2ccc(Br)cc21` (racemic) [Example 32, (R,S) 8-Bromo-1-methyl-2,3,4,5tetrahydro-1H-3-benzazepine] stands 2.1 nM.
